Biological target: T1, aromatase (Homo sapiens, UniProt P11511)
T1 construct: gene CYP19A1; microsomes isolated from JEG-3 human choriocarcinoma cells
T1 sequence (P11511 1-503): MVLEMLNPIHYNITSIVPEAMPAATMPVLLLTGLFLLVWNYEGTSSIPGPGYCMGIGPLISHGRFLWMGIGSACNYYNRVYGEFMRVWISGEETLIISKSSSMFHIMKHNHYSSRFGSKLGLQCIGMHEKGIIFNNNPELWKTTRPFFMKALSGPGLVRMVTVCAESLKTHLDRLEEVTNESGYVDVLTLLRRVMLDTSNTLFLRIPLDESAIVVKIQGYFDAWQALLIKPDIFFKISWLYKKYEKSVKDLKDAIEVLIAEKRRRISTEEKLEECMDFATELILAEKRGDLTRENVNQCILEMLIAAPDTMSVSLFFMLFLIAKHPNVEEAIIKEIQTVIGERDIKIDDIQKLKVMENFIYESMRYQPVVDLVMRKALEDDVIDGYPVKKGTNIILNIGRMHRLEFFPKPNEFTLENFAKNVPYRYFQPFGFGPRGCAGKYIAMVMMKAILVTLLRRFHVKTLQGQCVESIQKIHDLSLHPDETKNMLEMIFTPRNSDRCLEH
Experiment: 3H2O release aromatase assay in JEG-3 microsomes, Lineweaver-Burk kinetics; also intact MCF-7 cells
Type: biochemical

IC50: 1000 nM
Structure (SMILES): CC1=C(/C=C/C(C)=C/C=C/C(C)=C/C(=O)Nc2ccc(O)cc2)C(C)(C)CCC1 [4-HPR, N-(4-hydroxyphenyl)-retinamide]

Source: article PMC2374555, “Inhibition of aromatase activity and expression in MCF-7 cells by the chemopreventive retinoid N -(4-hydroxy-phenyl)-retinamide” (British Journal of Cancer, 2000)
